The source of these data is patent publication US10781201B2, “Benzimidazole derivative having JNK inhibitory activity and use thereof” (INDUSTRY-UNIVERSITY COOPERATION FOUNDATION HANYANG …, priority 2017, dated 2020).

Some results are limits rather than exact numbers.

By IC50 is commonly meant the concentration at which inhibition is half-maximal. A low value points to inhibition by little substance. A word on the efflux ratio: it is a quotient of directional permeabilities that is used to spot active efflux. As usually defined, the Papp A→B is how fast a substance crosses the layer from the apical side. In general, Papp B→A refers to how fast a substance crosses the layer from the basolateral side.

The target of one data set is human JNK3 enzyme (Homo sapiens, UniProt P53779). The experiment in a line: Measurement of JNK3 enzymatic activity (33P-ATP filter-binding method). The settings on record: Table 3; ATP 10 μM, ATF2 3 μM. It counts as biochemical. The procedure: First, a substrate was added to a prepared base reaction buffer solution (20 mM Hepes (pH 7.5), 10 mM MgCl2, 1 mM EGTA, 0.02% Brij35, 0.02 mg/ml BSA, 0.1 mM Na3VO4, 2 mM DTT, 1% DMSO), a human JNK3 enzyme was added into the prepared substrate solution, and the resulting solution was mixed. ATP (10 μM) and ATF2 (3 μM) were used as substrates, and among them, ATP was used as a common substrate. Next, the compound according to the present invention dissolved in 100% DMSO was added to an enzyme reaction solution, and incubated at room temperature for 20 minutes. Subsequently, ^33P-ATP was added to the mixed reaction solution to initiate the reaction, followed by incubation at room temperature for 2 hours, and enzymatic activity was detected by a filter-binding method. Specifically, 25 al per resulting solution was slowly spotted on P81 paper and placed in a scintillation vial, and then the paper was washed four times with 0.75% phosphoric acid for 10 minutes each and washed once with acetone for 5 minutes. 5 ml of a scintillation cocktail was added to the scintillation vial and signals were read using a scintillation counter.

Data set [1] relates to Alzheimer's disease transgenic mice. Kind of data set: Reducing concentration of APP and beta-amyloid oligomer in brain tissue, western blotting. It counts as in vivo. Conditions: IV 15 mg/kg/day three times per 1 week for a total of 2 weeks, compared to non-treated 2×TG(veh). The text has this: JNK3 is known to phosphorylate and activate amyloid precursor protein (APP), which is the main cause of Alzheimer's disease, to thus allow the APP to be located in a cell membrane, and promotes the conversion of APP to beta-amyloid, and it has been reported that, even in a case in which, after beta-amyloid is formed, the apoptosis of neurons is induced by toxicity thereof, the activation of JNK3 acts as a main cause. Based on these facts, in the present experimental example, the derivative of the present invention (compound 35d) was administered via intravenous injection (IV) to Alzheimer's disease transgenic mice in a dose of 15 mg/kg/day three times per 1 week for a total of 2 weeks, and then changes in the concentration of APP and beta-amyloid oligomer in the frontal lobe cortex were confirmed through western blotting. Meanwhile, normal mice (WT(veh)) were used as a control, and non-treated Alzheimer's disease transgenic mice (2×TG(veh)) were used as a comparative group.
In general terms: In western blotting, separated proteins are transferred to a membrane and probed.

Data set [2] concerns P-gp(MDR1)-overexpressing Caco-2-MDR1 cells. Kind of data set: Evaluation of migration of blood-brain barrier (BBB migration evaluation system). The settings on record: class in words. It counts as in vitro ADME. The text has this: (§1) The blood-brain barrier (BBB) functions as a primary barrier to prevent the invasion of foreign substances, but acts as an obstacle to treatment in pathological circumstances. That is, therapeutics for the treatment of brain diseases or maintaining the condition thereof are very unlikely to permeate the blood-brain barrier, and thus are unable to be effectively used, and accordingly, the selection of drugs for the treatment of brain diseases is limited. […] […] amount of material permeating into mebrain, A: area, and C0: initial concentration of material)

A further data set has as its system P-gp (MDR1). The data set is described as above. It counts as in vitro ADME. Conditions: human, Caco-2-MDR1 cells.
Text: as §1

human JNK3 enzyme, sequence (P53779 whole entry): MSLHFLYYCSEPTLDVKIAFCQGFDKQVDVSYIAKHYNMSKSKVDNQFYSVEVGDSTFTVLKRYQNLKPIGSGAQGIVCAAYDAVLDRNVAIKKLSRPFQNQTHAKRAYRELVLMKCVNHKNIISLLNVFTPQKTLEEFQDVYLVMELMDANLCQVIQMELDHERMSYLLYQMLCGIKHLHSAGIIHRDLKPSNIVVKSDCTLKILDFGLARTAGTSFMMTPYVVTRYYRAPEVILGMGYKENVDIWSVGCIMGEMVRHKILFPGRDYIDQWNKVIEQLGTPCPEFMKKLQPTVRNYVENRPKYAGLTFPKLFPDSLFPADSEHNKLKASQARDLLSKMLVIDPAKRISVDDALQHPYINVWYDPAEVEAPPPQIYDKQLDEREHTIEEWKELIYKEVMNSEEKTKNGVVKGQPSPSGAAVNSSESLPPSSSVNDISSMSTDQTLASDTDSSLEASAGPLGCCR

Compound `O=C(C1CC1)N1CCC[C@@H](Nc2nccc(-n3c(-c4ccc5c(c4)OCCO5)nc4cc(O)c(O)cc43)n2)C1` [Compound 35d, (R)-cyclopropyl(3-(4-(2-(2,3-dihydrobenzo[b][1,4]dioxin-6-yl)-5,6-dihydroxy-1H-benzo[d]imidazole-1-yl)pyrimidin-2-ylamino)piperidine-1-yl)methanone] showed a half-maximal inhibitory concentration (IC50) on human JNK3 enzyme of under 0.03 µM. Besides, in data set [1], the “concentration of beta-amyloid oligomer in the frontal lobe cortex” value was “significantly reduced” and the “expression level of APP in the frontal lobe cortex” value is recorded as “significantly reduced”. The Permeability result in data set [2] was “High”. The efflux ratio in the data set on P-gp (MDR1) came out at 1.13. Also, the Papp A→B in the data set with P-gp (MDR1) (apical to basolateral, read-out: A to B (permeability coefficient Papp)) is 17.3 ×10⁻⁶ cm/s. The Papp B→A in the data set with P-gp (MDR1) (basolateral to apical, read-out: B to A (permeability coefficient Papp)) came to 19.6 ×10⁻⁶ cm/s.
